These results are taken from US20040052728A1, “Diagnostic imaging” (priority 1998, published 2004).

Like-named read-outs stand apart in the source and are kept apart here.

The subject of data set [1] is myocardium. Kind of data set: Open chest ultrasound imaging with partial coronary occlusion (snare on left anterior descending coronary artery). The settings on record: for change in contrast effect in the myocardium, except in areas supplied by the stenotic artery: one minute after start of infusion. It is filed as in vivo, dog. As for the experimental part:
The procedure of Example 1 was repeated except that an occluding snare was placed around the major branch of the left anterior descending coronary artery. An ultrasound transit time flow meter was applied to the same artery and the snare was adjusted to give a stable reduction in blood flow to about 75% of the normal value. Contrast agent and adenosine injections were then administered as in Example 1.
(§1) In order to analyse ultrasound images obtained according to the procedure of Example 1, the images were first converted from video images into grey level digital images (640×480 pixels) using a frame grabber. A fixed central region (399×399 pixels) covering the image sector was selected for further processing. The thus-obtained images were decimated by averaging 3×3 pixels into new images (133×133 pixels) and were then median filtered using a sliding region (5×5 pixels).
(§2) A single image obtained just before onset of adenosine-induced vasodilatation was selected as a geometrical template to which all other images were automatically adjusted to maximum pixel correlation by an affine transformation (6 degrees of freedom). Only pixels within a region of interest in the template image encompassing the left ventricle and its myocardium were used for calculating maximum pairwise pixel grey level correlation.
(§3) 6-10 baseline images from before the appearance of adenosine effects were averaged to give a representative baseline image, and a similar number of images at peak adenosine effect were likewise averaged. The two thus-obtained averaged images were then subtracted and the difference was colour coded. […] The colour coding was selected to represent the range −4 dB (blue colour) to +4 dB (red colour).
Images were acquired as described in Example 3 and processed according to the method of Example 4.
The procedure of Example 3 is repeated except that the bolus injection of adenosine is replaced with a pumpcontrolled infusion of dobutamine at a rate of 15 μg/kg/min.
The procedure of Example 3 is repeated except that the bolus injection of adenosine is replaced with a pumpcontrolled infusion of arbutamine at a rate of 0.4 μg/kg/min.

The conditions of data set [2]: in vivo; cited from earlier work.
For data set [3], the system named is left circumflex perfusion beds. The settings on record: contrast agent perfluoropropane-enhanced sonicated dextrose albumin i.v., cited from earlier work.
Data set [4] has as its system myocardium. Kind of data set: Open chest ultrasound imaging of the heart with contrast agent, then adenosine bolus. The data set is classed as in vivo, dog. As for the experimental part: A midline sternotomy was performed on an anaesthetised 20 kg mongrel dog and the anterior pericardium was removed. A short axis view of the heart was imaged with an ATL HDI-3000 scanner, using a P5-3 transducer in harmonic mode; a 30 mm silicone rubber spacer having low ultrasound attenuation was placed between the transducer and the anterior surface of the heart. ECG gating was used so as to acquire one image in each end-systole.
as §1, §2, §3
Images were acquired as described in Example 1 and processed according to the method of Example 4. The normal myocardium was depicted with a homogeneous colour indicating a signal increase of some 3-4 dB.

Data set [5] deals with myocardium. Put plainly: Closed chest ultrasound imaging of the heart with contrast agent, then adenosine bolus. The data set is classed as in vivo, dog. To be noted: Preparation 1 contrast agent.
Description: The procedure of Example 1 was repeated with a closed chest dog, using a parasternal transducer position. The resulting ultrasound images were less homogeneous as regards signal intensities than the images obtained in Example 1, as a result of acoustic effects of the intact chest wall.
as §1, §2
6-10 baseline images from before the appearance of adenosine effects were averaged to give a representative baseline image, and a similar number of images at peak adenosine effect were likewise averaged. […]

The subject of data set [6] is myocardium. Put plainly: Imaging in man: pulse inversion imaging of the heart with contrast agent and adenosine infusion. It is filed as in vivo, human. The settings on record: adenosine i.v. infusion 140 μg/kg/min, apical 2-chamber view, Preparation 1 contrast agent. On the procedure: A patient with an angiographically verified 80% left anterior descending arterial stenosis was given an intravenous injection of 1 ml of a perfluorobutane microbubble suspension prepared as in Preparation 1. The heart was imaged with an ATL HDI-5000 scanner and a P4-2 transducer, using ECG-gated (every second end-systole) pulse inversion imaging; the mechanical index was 0.6. The heart was imaged from an apical 2-chamber view. […] Intravenous infusion of adenosine at a rate of 140 μg/kg/min was then started, and a sequence of 30 images, of which 10 were before the onset of adenosine effects in the heart, were stored in digital format. The images were processed as in Example 4, but without the initial video grabbing steps.

[7] abbreviates: blood flow reduced to about 75% of normal, adenosine 150 μg/kg i.v. bolus, Preparation 1 contrast agent.
The mark [8] stands for this setting: following injection of adenosine, processed difference image.
[9] abbreviates: adenosine 150 μg/kg i.v. bolus after Preparation 1 contrast agent.

In the case of `Nc1ncnc2c1ncn2[C@@H]1O[C@H](CO)[C@@H](O)[C@H]1O` [Adenosine, adenosine], in the data set with myocardium [1] (setting [7]), the “change in contrast effect in all other areas of the myocardium” value is “increase” and the “change in contrast effect in tissue areas affected by the occlusion” value is “slight decrease in contrast effect”. In the data set on myocardium [1] (setting [8]), the “decrease in signal intensity in myocardial tissue affected by the simulated coronary stenosis” value is recorded as 1-3 dB and the “increase in signal intensity in normal myocardium” value is recorded as 2-3 dB. For the same compound, in data set [2], the blood pool half-life entry was “only a few seconds”. The “ratio of peak myocardial videointensities, adenosine stress compared to resting” value in data set [3] (stenoses with diameter in excess of 70%) is on record as 0.8-1.4. Further, the “ratio of peak myocardial videointensities, adenosine stress compared to resting” value in data set [3] (stenoses with diameter not exceeding 50%) was 1.8-2.1. Also, in the data set with myocardium [4] (setting [9]), the “change in echo intensity from the myocardium” value was “distinct general increase in echo intensity”, the “duration of the increase in echo intensity” value was roughly 15 s and the “time from adenosine injection to increase in echo intensity from the myocardium” value is 7 s. Further, the “signal increase in normal myocardium (processed difference image)” value in the data set on myocardium [4] (open chest, peak adenosine effect versus baseline, Preparation 1 contrast agent) was 3-4 dB. Further, the “change in echo intensities after injection of adenosine” value in the data set with myocardium [5] (parasternal transducer position) is recorded as “general increase in echo intensities comparable to that observed in Example 1”. The “signal increase in normal myocardium (processed difference image)” value in the data set on myocardium [5] (peak adenosine effect versus baseline) is 3-4 dB. For the same compound, in the data set with myocardium [6], the “decrease in signal intensity in myocardial regions supplied by the stenotic artery” value is 1-2 dB and the “increase in signal intensity in normal regions of the myocardium” value is given as 2-3 dB.
For the compound `CC(CCc1ccc(O)cc1)NCCc1ccc(O)c(O)c1` (centres unmarked) [dobutamine], in the data set with myocardium [1] (dobutamine infusion 15 μg/kg/min, Preparation 1 contrast agent), the “change in contrast effect in the myocardium, except in areas supplied by the stenotic artery” value is recorded as “increase in contrast effect”.
On to `Oc1ccc(CCCCNC[C@H](O)c2ccc(O)c(O)c2)cc1` [arbutamine], for which, in the data set on myocardium [1] (arbutamine infusion 0.4 μg/kg/min, Preparation 1 contrast agent), the “change in contrast effect in the myocardium, except in areas supplied by the stenotic artery” value was “increase in contrast effect”.
